{
  "source": "patent US20060058383A1",
  "about": "(priority 2004, published 2006)",
  "key": {"[1]": {"system": "human brain tumor cells (U87MG)", "assay": "MTT assay, 72 hour incubation", "type": "cell-based", "conditions": "U-87 MG", "protocol": "(§1) The effect of Glycolycin on human colon cancer cells (HCT116) and human brain tumor cells (U87MG) were tested using MTT assays for a 72 hour incubation. […] The IC50 value of S-Glycolycin for brain tumor U87MG cells is approximately 30 μM. […] This is of clinical significance, since the majority of human cancers are defective in p53 function and show reduced response to radiotherapy and certain anticancer agents."}, "[2]": {"system": "human colon cancer cells (HCT116)", "assay": "MTT assay, 72 hour incubation", "type": "cell-based", "conditions": "HCT-116", "protocol": "as §1"}, "[3]": {"system": "primary CLL cells", "assay": "MTT assay in primary leukemia cells", "type": "cell-based, human"}, "[4]": {"system": "HL-60 cells with high Bcl-2 expression", "assay": "MTT growth inhibition of Bcl-2 transfected cells", "type": "cell-based, human", "conditions": "MTT assay", "protocol": "Cell growth inhibition was measured by MTT assay.\nIncreased expression of the anti-apoptotic molecule Bcl-2 has been associated with drug resistance in cancer cells. The over-expression of Bcl-2 in HL-60 cells was […] against the cytotoxic effect of S-Glycolycin. […] Thus, Glycolycin may be used to overcome drug resistance due to Bcl-2 over expression."}, "[5]": {"system": "HL-60/AR cells", "assay": "MTT cytotoxicity, drug-resistant clone versus parental cells", "type": "cell-based, human", "conditions": "MTT assay", "protocol": "HL-60 cell line and its drug-resistant clone HL-60/AR were incubated with the indicated concentrations of doxorubicin, vincristine, and 3-BrPA for 72 h. Cytotoxicity was measured by MTT assay. […] Based on the teachings provided herein, studies may be performed to determine the sensitivity of HL-60/AR cells to Glycolycin.\nAra-C, a drug commonly used in the frontline treatment of leukemia, was used in parallel experiments. Cytotoxicity was measured by MTT assay."}, "[6]": {"system": "human lymphoma cells (Raji)", "assay": "Sensitivity under hypoxic versus normoxic conditions, annexin-V/PI assay 24 h", "type": "cell-based", "conditions": "40 μM", "protocol": "(Annexin-V/PI assay, 24 h)\nCancer cells in solid tumors have to adapt to the hypoxia environment due to insufficient blood supply. Under hypoxia conditions, cancer cells use the glycolytic pathway to generate ATP without consuming oxygen. This metabolic adaptation also renders cancer cells relatively resistant to anticancer agents and radiation therapy, partially due to up-regulation of expression of cell survival factors such as HIF-1α. […] However, because under hypoxia condition cancer cells dependent on glycolysis for generation of ATP, it is contemplated that such cancer cells are vulnerable to glycolytic inhibition by Glycolycin. […] Thus, it is envisioned that Glycolycin can be use for effective treatment of many solid tumors, either as a single agent or in combination with other anticancer agents."}, "[7]": {"system": "respiration-deficient subclone HL-60/C6F cells", "assay": "Depletion of cellular ATP pool (PCA extraction, HPLC)", "type": "cell-based, human", "conditions": "12 h incubation", "protocol": "(§2) Cells were incubated with the indicated concentrations of S-Glycolycin or 3-BrPA for 12 h. Cellular ATP was extracted by 0.4 N PCA, neutralized with KOH, and quantified by HPLC analysis. […] Incubation of cells with 0.03 mM S-Glycolycin completely depleted cellular ATP in both cell lines, while it required a 10-fold greater concentration (0.3 mM) of 3-BrPA to achieve the same degree of ATP depletion."}, "[8]": {"system": "human leukemia HL-60 cell line", "assay": "Depletion of cellular ATP pool (PCA extraction, HPLC)", "type": "cell-based", "protocol": "as §2"}, "[9]": {"system": "BAD phosphorylation in primary CLL cells", "assay": "BAD dephosphorylation in primary leukemia cells, western blot", "type": "cell-based, human"}, "[10]": {"system": "human colon cancer cells (HCT116)", "assay": "Colony formation under hypoxic conditions, with radiation", "type": "cell-based", "source_text": "It is known in the art that under hypoxic conditions, cancer cells become less sensitive to radiation therapy, partially due to up-regulation of expression of survival factors and less generation of free radicals without oxygen. However, under hypoxic conditions cancer cells depend on glycolysis for generation of ATP, which is the essential energy source for repair of the DNA damage caused by radiation. Thus, it is contemplated that Glycolycin can effectively deplete cellular ATP pool under hypoxic conditions and enhance the therapeutic activity of radiation. […] Combination of Glycolycin and radiation almost completely killed all cells plated (up to 200,000 cells/well). Thus, Glycolycin is an effective agent to enhance the effectiveness of radiotherapy."}, "[11]": {"system": "BAD phosphorylation (Ser112) in HL-60 cells", "assay": "BAD phosphorylation at Ser112, western blot", "type": "cell-based, human", "protocol": "HL-60 cells were incubated with the indicated concentrations of each compound for 3 h. BAD and its phosphorylation at Ser112 were measured by western blot analysis, using the respective antibodies. β-Actin was also blotted as the protein loading control.\nA time- and dose-dependent effect of S-Glycolycin on the expression level of pro-apoptotic factor BAD and its phosphorylation at Ser112 is provided in FIG. 18. HL-60 cells were incubated with the indicated concentrations of S-Glycolycin for various times. Total BAD protein and its phosphorylation at Ser112 were measured by western blot analysis using the respective antibodies. β-actin was also blotted as the protein loading control. […] Note that severe ATP depletion can be induced by S-Glycolycin at 30-50 μM, but not at 10 μM (FIG. 15)."}, "[12]": {"system": "respiration-deficient C6F cells (HL-60-C6F)", "assay": "Effect of glutamine on cytotoxic activity, apoptosis at 24 h", "type": "cell-based, human", "conditions": "1 mM glutamine for 2 h", "protocol": "(§3) The effect of glutamine on the cytotoxic activity of S-Glycolycin in wild-type HL-60 cells and respiration-deficient C6F cells was compared. Parental HL-60 cells were incubated with the indicated concentrations of S-Glycolycin in the presence or absence of 1 mM glutamine for 2 h, washed, and re-cultured in fresh medium. Apoptosis was measured at 24 h. […] In FIG. 26, the respiration-deficient cells (HL-60-C6F) were incubated with the indicated concentrations of S-Glycolycin in the presence or absence of 1 mM glutamine for 2 h, washed, and re-cultured in fresh medium. Apoptosis was measured at 24 h. Thus, glutamine supplement offers some degree of protection for cells with competent mitochondrial function."}, "[13]": {"system": "parental HL-60 cells", "assay": "Effect of glutamine on cytotoxic activity, apoptosis at 24 h", "type": "cell-based, human", "conditions": "1 mM glutamine for 2 h", "protocol": "as §3"}, "[14]": {"system": "colon cancer cells without p53 expression", "assay": "Sensitivity of colon cancer cells without p53", "type": "cell-based, human", "conditions": "separate experiment", "protocol": "as §1"}, "[15]": {"system": "HL-60 cells", "assay": "Induction of apoptosis, annexin-V/PI flow cytometry", "type": "cell-based, human", "conditions": "30 μM; 24 h", "protocol": "HL-60 cells were incubated with the indicated concentrations of S-Glycolycin or 3-BrPA for 24 h. Apoptosis was measured by double staining with annexin-V and PI, followed by flow cytometry analysis. […] Incubation of HL-60 cells with 30 μM of S-Glycolycin caused more 90% cells to undergo apoptosis in 24 h, whereas the same concentration of 3-BrPA killed less than 20% of the cells within the same time period."}},
  "data": [
    {"smiles": "O=C(O)O.O=C([O-])C(=O)CBr.[Na+]", "note": "[S-Glycolycin, Sodium 3-bromo-2-oxopropionate carbonic acid]", "values": [
      {"measurement": "IC50", "setting": "[1]", "result": "~30", "unit": "µM"},
      {"measurement": "IC50", "setting": "[2]", "result": "5 to 10", "unit": "µM"},
      {"measurement": "killing CLL cells as measured by IC50 values, comparison", "setting": "[3]", "result": "more potent than 3-BrPA"},
      {"measurement": "sensitivity of Bcl-2 transfected cells compared to transfected control (Neo)", "setting": "[4]", "result": "remain sensitive"},
      {"measurement": "sensitivity of HL-60/AR compared to parental HL-60 cells", "setting": "[5]", "result": "equally sensitive"},
      {"measurement": "sensitivity under hypoxic versus normoxic conditions", "setting": "[6]", "result": "significantly more sensitive"},
      {"measurement": "concentration that completely depleted cellular ATP", "setting": "[7]", "result": 0.03, "unit": "mM"},
      {"measurement": "concentration that completely depleted cellular ATP", "setting": "[8]; 12 h incubation, HL-60", "result": 0.03, "unit": "mM"},
      {"measurement": "concentration inducing severe ATP depletion", "setting": "[8]; not at 10 μM", "result": "30 to 50", "unit": "µM"},
      {"measurement": "BAD dephosphorylation, comparison", "setting": "[9]", "result": "more active than 3-BrPA"},
      {"measurement": "reduced colony formation", "setting": "[10]; 40 μM in combination with radiation (6 Gy), hypoxic conditions", "result": "more than 99.9%"},
      {"measurement": "sensitivity under hypoxic conditions", "setting": "[10]; drug alone, hypoxic versus normoxic", "result": "more sensitive"},
      {"measurement": "change in BAD / phosphorylation at Ser112", "setting": "[11]; 10 μM", "result": "did not cause any significant change"},
      {"measurement": "change in BAD / phosphorylation at Ser112", "setting": "[11]; 50 μM", "result": "almost complete dephosphorylation"},
      {"measurement": "dephosphorylation of BAD, comparison", "setting": "[11]; 3 h incubation", "result": "more effective than 3-BrPA"},
      {"measurement": "protection by glutamine from cytotoxic effect", "setting": "[12]", "result": "no protection"},
      {"measurement": "protection by glutamine from cytotoxic effect", "setting": "[13]", "result": "partial protection"},
      {"measurement": "sensitivity compared with p53-expressing colon cancer cells", "setting": "[14]", "result": "similarly sensitive"},
      {"measurement": "cells undergoing apoptosis", "setting": "[15]", "result": "> 90", "unit": "%"}
    ]}
  ]
}
